Measured values: ChEMBL document CHEMBL1141107, “A novel series of non-carboxylic acid, non-hydantoin inhibitors of aldose reductase with potent oral activity in diabetic rat models: 6-(5-chloro-3-methylbenzofuran-2-sulfonyl)-2H-pyridazin-3-one and congeners” (J Med Chem, 2005)

What was measured:
Rattus norvegicus [1] = assay: Inhibition of fructose accumulation in diabetic rat after oral gavage administration incubated at RT for 60 minutes in pH 4.5 by acute test dosed at 10 mg/kg; type: functional; conditions: 1 h
Rattus norvegicus [2] = assay: Inhibition of fructose accumulation in diabetic rat after oral gavage administration incubated at RT for 60 minutes in pH 4.5 by acute test dosed at 25 mg/kg; type: functional; conditions: 1 h
Rattus norvegicus [3] = assay: Inhibition of fructose accumulation in diabetic rat after oral gavage administration incubated at RT for 60 minutes in pH 4.5 by acute test dosed at 50 mg/kg; type: functional; conditions: 1 h
Rattus norvegicus [4] = organism: Rattus norvegicus; assay: Dose required for inhibition of sorbitol accumulation in diabetic rat by acute test; type: functional
Rattus norvegicus [5] = assay: Inhibition of sorbitol accumulation in diabetic rat by acute test dosed at 10 mg/kg; type: functional
Rattus norvegicus [6] = assay: Dose required for fructose accumulation in diabetic rat after oral gavage administration incubated at RT for 60 minutes in pH 4.5 by acute; type: functional
Rattus norvegicus [7] = assay: Inhibition of sorbitol accumulation in diabetic rat by acute test dosed at 25 mg/kg; type: functional
Rattus norvegicus [8] = assay: Inhibition of sorbitol accumulation in diabetic rat by acute test dosed at 50 mg/kg; type: functional
[9] = target: Aldo-keto reductase family 1 member B1 (Homo sapiens, UniProt P15121); assay: In vitro inhibitroy concentration against Aldose reductase incubated at 24 degree C for 15 minutes in pH 7.0
Rattus norvegicus [10] = assay: Inhibition of fructose accumulation in diabetic rat after oral gavage administration incubated at RT for 60 minutes in pH 4.5 by acute test dosed at 3 mg/kg; type: functional; conditions: 1 h
Rattus norvegicus [11] = assay: Dose required for fructose accumulation in diabetic rat after oral gavage administration, pH 4.5 by chronic test; type: functional
Rattus norvegicus [12] = assay: Inhibition of fructose accumulation in diabetic rat after oral gavage administration, pH 4.5 by chronic test dosed at 1 mg/kg; type: functional
Rattus norvegicus [13] = assay: Inhibition of fructose accumulation in diabetic rat after oral gavage administration, pH 4.5 by chronic test dosed at 3 mg/kg; type: functional
Rattus norvegicus [14] = assay: Inhibition of fructose accumulation in diabetic rat after oral gavage administration, pH 4.5 by chronic test dosed at 10 mg/kg; type: functional
Rattus norvegicus [15] = assay: Inhibition of sorbitol accumulation in diabetic rat by acute test dosed at 1 mg/kg; type: functional
Rattus norvegicus [16] = assay: Inhibition of sorbitol accumulation in diabetic rat by acute test dosed at 3 mg/kg; type: functional
Rattus norvegicus [17] = assay: Inhibition of sorbitol accumulation in diabetic rat by chronic test dosed at 1 mg/kg; type: functional
Rattus norvegicus [18] = assay: Inhibition of sorbitol accumulation in diabetic rat by chronic test dosed at 3 mg/kg; type: functional
Rattus norvegicus [19] = assay: Inhibition of sorbitol accumulation in diabetic rat by chronic test dosed at 10 mg/kg; type: functional
Rattus norvegicus [20] = organism: Rattus norvegicus; assay: Dose required for sorbitol accumulation in diabetic rat by chronic test
Rattus norvegicus [21] = assay: Dose required for fructose accumulation in diabetic rat after oral gavage administration incubated at RT for 60 minutes in pH 4.5 by acute test; conditions: 1 h
Rattus norvegicus [22] = organism: Rattus norvegicus; assay: Inhibition of sorbitol accumulation in diabetic rat by acute test; type: functional
Rattus norvegicus [23] = organism: Rattus norvegicus; assay: Inhibition of sorbitol accumulation in diabetic rat by chronic test; type: functional
Rattus norvegicus [24] = assay: Inhibition of sorbitol accumulation in diabetic rat by acute test dosed at 60 mg/kg; type: functional
Rattus norvegicus [25] = assay: Inhibition of fructose accumulation in diabetic rat after oral gavage administration incubated at RT for 60 minutes in pH 4.5 by acute test dosed at 1 mg/kg; type: functional; conditions: 1 h
Rattus norvegicus [26] = organism: Rattus norvegicus; assay: Dose required for sorbitol accumulation in diabetic rat by chronic test; type: functional
Rattus norvegicus [27] = assay: Dose required for fructose accumulation in diabetic rat after oral gavage administration incubated at RT for 60 minutes in pH 4.5 by acute test; type: functional
[28] = Maximum plasma concentration in rat was determined; type: ADME, organism-based

SMILES	inhibition in vivo at 10 mg/kg (Rattus norvegicus [1]) [%]	ED50 (Rattus norvegicus [4]) [mg/kg]	inhibition in vivo at 10 mg/kg (Rattus norvegicus [5]) [%]	IC50 [9] [nM]	inhibition in vivo at 3 mg/kg (Rattus norvegicus [10]) [%]	inhibition in vivo at 1 mg/kg (Rattus norvegicus [12]) [%]	inhibition in vivo at 3 mg/kg (Rattus norvegicus [13]) [%]	inhibition in vivo at 10 mg/kg (Rattus norvegicus [14]) [%]	inhibition in vivo at 1 mg/kg (Rattus norvegicus [15]) [%]	inhibition in vivo at 3 mg/kg (Rattus norvegicus [16]) [%]	inhibition in vivo at 1 mg/kg (Rattus norvegicus [17]) [%]	inhibition in vivo at 3 mg/kg (Rattus norvegicus [18]) [%]	inhibition in vivo at 10 mg/kg (Rattus norvegicus [19]) [%]	ED50 (Rattus norvegicus [27]) [mg/kg]	also measured
O=S(=O)(c1ccccc1)c1ccc(O)nn1	14	15	40	–	–	–	–	–	–	–	–	–	–	–	inhibition in vivo at 25 mg/kg (Rattus norvegicus [2]): 49%; inhibition in vivo at 50 mg/kg (Rattus norvegicus [3]): 74%; ED50 (Rattus norvegicus [6]): 25 mg/kg; inhibition in vivo at 25 mg/kg (Rattus norvegicus [7]): 73%; inhibition in vivo at 50 mg/kg (Rattus norvegicus [8]): 95%
Cc1c(S(=O)(=O)c2ccc(O)nn2)oc2ccc(C(F)(F)F)cc12	–	1.3	101	5	79	54	81	100	43	91	75	95	102	–	ED50 (Rattus norvegicus [11]): 1 mg/kg; ED50 (Rattus norvegicus [20]): < 1 mg/kg; ED50 (Rattus norvegicus [21]): 2 mg/kg
O=S(=O)(c1ccccc1)c1ccc(S(=O)(=O)c2ccccc2)nn1	–	–	–	–	–	–	–	–	–	–	–	–	–	–	Inhibition (Rattus norvegicus [22]): 58%; Inhibition (Rattus norvegicus [23]): 50%
O=c1ccc(S(=O)(=O)Cc2ccccc2)n[nH]1	–	–	–	600	–	–	–	–	–	–	–	–	–	–	inhibition in vivo at 60 mg/kg (Rattus norvegicus [24]): 73%
Cc1c(S(=O)(=O)c2ccc(O)nn2)oc2ccc(F)cc12	62	1.2	84	3	42	17	64	90	47	66	52	86	100	5.8	inhibition in vivo at 1 mg/kg (Rattus norvegicus [25]): 11%; ED50 (Rattus norvegicus [26]): 1 mg/kg
Cc1c(S(=O)(=O)c2ccc(=O)[nH]n2)oc2ccc(Cl)cc12	–	0.2	–	1	–	–	–	–	–	–	–	–	–	0.8	Cmax [28]: 9000 ng/mL
